From ChEMBL document CHEMBL5029162, “4-Pyridone-3-carboxylic acid as a benzoic acid bioisostere: Design, synthesis, and evaluation of EP300/CBP histone acetyltransferase inhibitors” (Bioorg Med Chem Lett, 2021)

Key:
CREB-binding protein = CREB-binding protein (Homo sapiens, UniProt Q92793); test: Inhibition of CBP (unknown origin)
[1] = target: Histone acetyltransferase KAT6B (Homo sapiens, UniProt Q8WYB5); test: Inhibition of MYST4 (unknown origin)
[2] = target: Histone acetyltransferase KAT2A (Homo sapiens, UniProt Q92830); test: Inhibition of GCN5 (unknown origin)

Chain of Histone acetyltransferase KAT6B (Q8WYB5 whole entry): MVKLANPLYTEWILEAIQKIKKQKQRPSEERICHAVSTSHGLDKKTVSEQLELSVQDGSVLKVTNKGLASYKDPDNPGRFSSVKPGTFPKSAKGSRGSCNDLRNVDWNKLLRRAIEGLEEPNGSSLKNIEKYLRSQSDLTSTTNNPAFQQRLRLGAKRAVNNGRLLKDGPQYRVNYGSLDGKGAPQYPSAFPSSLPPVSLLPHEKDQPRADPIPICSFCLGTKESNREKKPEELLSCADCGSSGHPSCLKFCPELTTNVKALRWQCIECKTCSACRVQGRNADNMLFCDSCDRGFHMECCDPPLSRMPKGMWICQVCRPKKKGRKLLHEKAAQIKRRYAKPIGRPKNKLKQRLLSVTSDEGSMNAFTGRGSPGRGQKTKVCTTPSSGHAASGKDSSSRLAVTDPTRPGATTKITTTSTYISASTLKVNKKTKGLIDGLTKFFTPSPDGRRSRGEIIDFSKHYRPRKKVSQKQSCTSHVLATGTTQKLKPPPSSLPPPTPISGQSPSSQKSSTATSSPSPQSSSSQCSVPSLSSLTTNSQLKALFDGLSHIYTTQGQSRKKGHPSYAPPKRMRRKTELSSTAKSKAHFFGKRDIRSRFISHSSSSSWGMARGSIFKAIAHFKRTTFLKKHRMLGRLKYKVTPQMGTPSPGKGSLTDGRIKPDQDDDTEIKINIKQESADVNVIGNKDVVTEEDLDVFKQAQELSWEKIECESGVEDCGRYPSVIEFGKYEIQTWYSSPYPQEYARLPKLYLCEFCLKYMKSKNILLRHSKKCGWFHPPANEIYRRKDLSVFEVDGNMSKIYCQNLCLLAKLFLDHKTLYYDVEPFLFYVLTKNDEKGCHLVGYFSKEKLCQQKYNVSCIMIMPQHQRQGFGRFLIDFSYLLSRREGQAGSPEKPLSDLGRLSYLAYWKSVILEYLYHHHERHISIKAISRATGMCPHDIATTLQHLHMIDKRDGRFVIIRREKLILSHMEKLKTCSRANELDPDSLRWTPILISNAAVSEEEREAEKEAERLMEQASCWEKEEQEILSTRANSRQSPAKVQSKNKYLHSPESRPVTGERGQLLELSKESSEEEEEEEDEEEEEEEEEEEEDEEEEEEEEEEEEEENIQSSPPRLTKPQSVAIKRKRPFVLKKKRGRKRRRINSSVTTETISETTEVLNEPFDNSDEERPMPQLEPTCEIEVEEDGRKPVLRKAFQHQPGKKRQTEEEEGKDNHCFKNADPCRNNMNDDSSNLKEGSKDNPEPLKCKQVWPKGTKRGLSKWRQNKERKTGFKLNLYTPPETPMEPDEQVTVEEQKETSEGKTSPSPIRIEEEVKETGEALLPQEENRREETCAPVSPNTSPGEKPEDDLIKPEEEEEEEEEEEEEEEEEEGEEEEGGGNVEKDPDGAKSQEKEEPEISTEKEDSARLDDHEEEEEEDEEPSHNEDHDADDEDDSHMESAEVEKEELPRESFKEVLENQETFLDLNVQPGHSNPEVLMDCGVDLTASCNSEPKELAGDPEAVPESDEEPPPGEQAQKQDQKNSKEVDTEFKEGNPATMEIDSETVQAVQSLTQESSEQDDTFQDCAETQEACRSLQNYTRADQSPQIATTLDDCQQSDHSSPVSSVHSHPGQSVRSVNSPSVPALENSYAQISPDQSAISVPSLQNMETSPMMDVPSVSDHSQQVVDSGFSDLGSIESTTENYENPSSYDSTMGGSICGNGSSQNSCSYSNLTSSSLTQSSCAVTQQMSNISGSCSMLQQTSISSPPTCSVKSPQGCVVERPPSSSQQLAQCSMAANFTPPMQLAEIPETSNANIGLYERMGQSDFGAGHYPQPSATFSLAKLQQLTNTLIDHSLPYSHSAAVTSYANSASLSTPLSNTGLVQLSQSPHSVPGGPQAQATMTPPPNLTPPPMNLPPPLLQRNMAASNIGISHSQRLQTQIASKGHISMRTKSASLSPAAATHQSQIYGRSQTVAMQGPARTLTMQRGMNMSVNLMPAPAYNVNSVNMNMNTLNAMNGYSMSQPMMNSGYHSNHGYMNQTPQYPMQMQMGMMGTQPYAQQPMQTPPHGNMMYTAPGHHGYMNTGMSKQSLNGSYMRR
Chain of CREB-binding protein (Q92793 whole entry): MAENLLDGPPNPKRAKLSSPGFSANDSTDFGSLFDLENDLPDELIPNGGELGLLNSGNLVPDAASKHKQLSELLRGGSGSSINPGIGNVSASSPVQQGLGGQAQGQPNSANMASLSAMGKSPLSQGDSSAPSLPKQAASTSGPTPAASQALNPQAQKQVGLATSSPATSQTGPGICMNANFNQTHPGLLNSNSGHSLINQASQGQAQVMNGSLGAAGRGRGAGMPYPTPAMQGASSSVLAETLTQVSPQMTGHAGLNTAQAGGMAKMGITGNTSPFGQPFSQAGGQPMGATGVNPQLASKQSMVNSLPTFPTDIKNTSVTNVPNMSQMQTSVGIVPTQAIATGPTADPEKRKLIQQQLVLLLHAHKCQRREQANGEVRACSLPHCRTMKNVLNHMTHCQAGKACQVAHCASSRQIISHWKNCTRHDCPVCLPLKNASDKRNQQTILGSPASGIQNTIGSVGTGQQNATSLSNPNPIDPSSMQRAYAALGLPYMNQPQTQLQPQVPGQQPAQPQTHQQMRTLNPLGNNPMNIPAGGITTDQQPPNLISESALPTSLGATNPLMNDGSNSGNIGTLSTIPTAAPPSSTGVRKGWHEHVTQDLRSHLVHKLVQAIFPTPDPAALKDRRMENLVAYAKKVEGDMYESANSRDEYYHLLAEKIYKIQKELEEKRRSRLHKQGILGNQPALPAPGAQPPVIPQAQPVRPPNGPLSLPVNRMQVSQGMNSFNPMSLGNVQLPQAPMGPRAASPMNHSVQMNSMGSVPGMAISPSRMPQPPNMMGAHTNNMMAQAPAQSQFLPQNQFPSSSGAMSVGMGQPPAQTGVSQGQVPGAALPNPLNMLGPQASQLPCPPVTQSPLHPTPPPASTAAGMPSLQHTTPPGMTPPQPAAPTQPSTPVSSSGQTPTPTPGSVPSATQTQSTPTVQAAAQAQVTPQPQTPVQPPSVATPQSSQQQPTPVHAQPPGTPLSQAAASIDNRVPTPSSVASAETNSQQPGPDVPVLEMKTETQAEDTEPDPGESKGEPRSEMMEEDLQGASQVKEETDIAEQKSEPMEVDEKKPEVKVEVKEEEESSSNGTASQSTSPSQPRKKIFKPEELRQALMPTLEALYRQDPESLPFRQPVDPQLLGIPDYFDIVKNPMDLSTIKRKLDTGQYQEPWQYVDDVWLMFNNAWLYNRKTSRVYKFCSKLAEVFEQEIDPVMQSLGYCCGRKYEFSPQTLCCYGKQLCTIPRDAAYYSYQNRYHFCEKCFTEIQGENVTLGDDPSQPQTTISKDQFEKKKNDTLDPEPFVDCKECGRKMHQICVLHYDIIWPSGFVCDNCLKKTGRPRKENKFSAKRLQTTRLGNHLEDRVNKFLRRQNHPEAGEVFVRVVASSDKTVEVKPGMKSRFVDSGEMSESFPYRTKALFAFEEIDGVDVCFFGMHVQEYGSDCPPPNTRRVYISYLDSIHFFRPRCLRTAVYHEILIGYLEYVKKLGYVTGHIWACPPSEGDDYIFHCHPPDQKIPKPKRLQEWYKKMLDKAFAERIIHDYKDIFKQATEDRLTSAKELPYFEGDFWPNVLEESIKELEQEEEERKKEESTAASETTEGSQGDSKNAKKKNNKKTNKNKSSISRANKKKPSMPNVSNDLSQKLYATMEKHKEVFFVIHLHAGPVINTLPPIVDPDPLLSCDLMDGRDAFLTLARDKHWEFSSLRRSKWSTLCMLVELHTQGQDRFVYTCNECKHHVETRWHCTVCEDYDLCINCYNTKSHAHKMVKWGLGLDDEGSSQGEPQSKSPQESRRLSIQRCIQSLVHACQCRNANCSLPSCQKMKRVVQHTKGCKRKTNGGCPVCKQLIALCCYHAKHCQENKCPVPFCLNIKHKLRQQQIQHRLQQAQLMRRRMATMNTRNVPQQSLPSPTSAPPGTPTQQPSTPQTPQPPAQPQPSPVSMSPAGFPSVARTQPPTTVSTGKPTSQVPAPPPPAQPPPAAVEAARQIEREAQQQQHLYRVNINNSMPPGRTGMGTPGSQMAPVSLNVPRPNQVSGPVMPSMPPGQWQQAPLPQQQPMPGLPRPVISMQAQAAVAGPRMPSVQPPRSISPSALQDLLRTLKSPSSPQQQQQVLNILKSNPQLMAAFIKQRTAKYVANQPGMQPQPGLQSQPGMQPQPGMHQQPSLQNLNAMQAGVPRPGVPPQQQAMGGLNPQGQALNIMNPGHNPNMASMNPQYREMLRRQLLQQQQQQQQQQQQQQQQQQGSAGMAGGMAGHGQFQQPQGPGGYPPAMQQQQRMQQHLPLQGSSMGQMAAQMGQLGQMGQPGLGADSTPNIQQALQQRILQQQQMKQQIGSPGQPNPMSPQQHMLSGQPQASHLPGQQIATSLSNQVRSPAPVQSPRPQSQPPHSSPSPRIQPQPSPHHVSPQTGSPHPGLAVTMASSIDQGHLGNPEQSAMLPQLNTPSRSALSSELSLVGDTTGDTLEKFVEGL

IC50 (CREB-binding protein) | IC50 [1] | IC50 [2] | Structure (SMILES)
1.3 µM | > 50 µM | > 50 µM | COC1=C(Cc2ccc(-c3cn(Cc4ccccc4)cc(C(=O)O)c3=O)s2)C(=O)N(c2ccc3ccccc3c2)C1
3.4 µM | > 50 µM | > 50 µM | COC1=C(Cc2ccc(-c3cn(C)cc(C(=O)O)c3=O)s2)C(=O)N(c2ccc3ccccc3c2)C1
